Experimental data: PubChem BioAssay (NCI)
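How tested: cells in 96-well plates exposed to compound for 48 hours at five concentrations. GI50 is the concentration that inhibits growth by half. At the TGI there is no net growth.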

What was measured:
Assay in all cases: NCI anticancer screen, dose series, 48 h
[1] = tested on: RXF 393 renal
[2] = tested on: PC-3 prostate
[3] = tested on: CAKI-1 renal
[4] = tested on: 786-0 renal
[5] = tested on: NCI-H522 lung
[6] = tested on: SR leukemia
[7] = tested on: T-47D breast
[8] = tested on: MCF7 breast
[9] = tested on: MDA-MB-231 breast
[10] = tested on: SK-OV-3 ovarian
[11] = tested on: MOLT-4 leukemia
[12] = tested on: COLO 205 colon
[13] = tested on: HS 578T breast
[14] = tested on: UO-31 renal
[15] = tested on: M14 melanoma
[16] = tested on: SF-295 CNS
[17] = tested on: BT-549 breast
[18] = tested on: A549 NSCLC
[19] = tested on: SF-268 CNS
[20] = tested on: K-562 leukemia
[21] = tested on: LOX IMVI melanoma
[22] = tested on: HT29 colon
[23] = tested on: CCRF-CEM leukemia
[24] = tested on: U251 CNS
[25] = tested on: IGROV1 ovarian
[26] = tested on: HCT-15 colon
[27] = tested on: SF-539 CNS
[28] = tested on: DU-145 prostate
[29] = tested on: RPMI-8226 leukemia
[30] = tested on: OVCAR-3 ovarian
[31] = tested on: MALME-3M melanoma
[32] = tested on: NCI-H226 lung
[33] = tested on: HOP-92 NSCLC
[34] = tested on: SW-620 colon
[35] = tested on: HOP-62 NSCLC
[36] = tested on: NCI-H460 lung
[37] = tested on: OVCAR-5 ovarian
[38] = tested on: HL-60(TB) leukemia
[39] = tested on: OVCAR-4 ovarian
[40] = tested on: KM12 colon
[41] = tested on: UACC-62 melanoma
[42] = tested on: MDA-MB-435
[43] = tested on: A498 renal
[44] = tested on: NCI/ADR-RES ovarian
[45] = tested on: OVCAR-8 ovarian
[46] = tested on: ACHN renal
[47] = tested on: SN12C renal
[48] = tested on: HCC-2998 colon
[49] = tested on: SK-MEL-2 melanoma
[50] = tested on: EKVX NSCLC
[51] = tested on: SNB-19 CNS
[52] = tested on: SK-MEL-5 melanoma
[53] = tested on: SNB-75 CNS
[54] = tested on: UACC-257 melanoma
[55] = tested on: SK-MEL-28 melanoma
[56] = tested on: TK-10 renal

`COC1CCN(Cc2ccc3c(NNC(=O)c4cnccn4)nc4cc(F)ccc4n23)C1` (stereo unspecified) showed a GI50 [1] of 1.65 µM, a TGI [1] of 5.19 µM and a GI50 [2] of 1.45 µM. It also gave a TGI [2] of 30.2 µM, a GI50 [3] of 0.933 µM and a TGI [3] of 19.7 µM. It also gave a GI50 [4] of 1.93 µM, a TGI [4] of 20.3 µM and a GI50 [5] of 1.64 µM. It also gave a TGI [5] of 5.85 µM, a GI50 [6] of 0.722 µM and a TGI [6] of 20.5 µM. For the same molecule, the GI50 [7] was 1.06 µM, the TGI [7] was 64.5 µM and the GI50 [8] was 0.531 µM. It also gave a TGI [8] of 12.3 µM, a GI50 [9] of 1.8 µM and a TGI [9] of 17.3 µM. The GI50 [10] was 2.35 µM, the TGI [10] was 56 µM and the GI50 [11] was 0.699 µM. It also gave a TGI [11] of 41.5 µM, a GI50 [12] of 0.949 µM and a TGI [12] of 13.9 µM. For the same molecule, the GI50 [13] was 3.44 µM, the TGI [13] was greater than 100 µM and the GI50 [14] was 0.26 µM. It also gave a TGI [14] of 14.6 µM, a GI50 [15] of 1.37 µM and a TGI [15] of 13.1 µM. It also gave a GI50 [16] of 0.744 µM, a TGI [16] of 14.6 µM and a GI50 [17] of 2.32 µM. The TGI [17] was greater than 100 µM, the GI50 [18] was 1.24 µM and the TGI [18] was 16 µM. The GI50 [19] was 1.99 µM, the TGI [19] was greater than 100 µM and the GI50 [20] was 0.53 µM. The TGI [20] was greater than 100 µM, the GI50 [21] was 1.13 µM and the TGI [21] was 2.87 µM. It also gave a GI50 [22] of 0.552 µM, a TGI [22] of 14.8 µM and a GI50 [23] of 0.468 µM. It also gave a TGI [23] greater than 100 µM, a GI50 [24] of 0.601 µM and a TGI [24] of 10.9 µM. It also gave a GI50 [25] of 1.13 µM, a TGI [25] of 39.1 µM and a GI50 [26] of 0.355 µM. The TGI [26] was 16.3 µM, the GI50 [27] was 1.32 µM and the TGI [27] was 12.1 µM. It also gave a GI50 [28] of 2.68 µM, a TGI [28] greater than 100 µM and a GI50 [29] of 1.76 µM. For the same molecule, the TGI [29] was 15.6 µM, the GI50 [30] was 2.02 µM and the TGI [30] was 49.8 µM. For the same molecule, the GI50 [31] was 3.38 µM, the TGI [31] was 18.9 µM and the GI50 [32] was 1.7 µM. It also gave a TGI [32] of 18.2 µM, a GI50 [33] of 1.77 µM and a TGI [33] of 30 µM. The GI50 [34] was 0.821 µM, the TGI [34] was 20.3 µM and the GI50 [35] was 0.747 µM. It also gave a TGI [35] of 14.4 µM, a GI50 [36] of 0.453 µM and a TGI [36] of 13.6 µM. It also gave a GI50 [37] of 2.71 µM, a TGI [37] of 97.7 µM and a GI50 [38] of 1.03 µM. The GI50 [39] was 0.667 µM, the TGI [39] was 19.1 µM and the GI50 [40] was 2.14 µM. The TGI [40] was greater than 100 µM, the GI50 [41] was 2.3 µM and the TGI [41] was 13.1 µM. It also gave a GI50 [42] of 2.09 µM, a TGI [42] of 18.7 µM and a GI50 [43] of 89.2 µM. It also gave a TGI [43] greater than 100 µM, a GI50 [44] of 0.505 µM and a TGI [44] of 16.6 µM. It also gave a GI50 [45] of 0.846 µM, a TGI [45] of 15.1 µM and a GI50 [46] of 0.647 µM. For the same molecule, the TGI [46] was 31.8 µM, the GI50 [47] was 1.82 µM and the TGI [47] was 37 µM. The GI50 [48] was 3.63 µM, the TGI [48] was 26.8 µM and the GI50 [49] was 3.83 µM. The TGI [49] was 59.4 µM, the GI50 [50] was 1.08 µM and the TGI [50] was 23 µM. For the same molecule, the GI50 [51] was 2.05 µM, the TGI [51] was 28.4 µM and the GI50 [52] was 2.76 µM. For the same molecule, the TGI [52] was 23.6 µM, the GI50 [53] was 0.538 µM and the TGI [53] was 13 µM. The GI50 [54] was 2.23 µM, the TGI [54] was 6.93 µM and the GI50 [55] was 3.37 µM. For the same molecule, the TGI [55] was greater than 100 µM, the GI50 [56] was 1.48 µM and the TGI [56] was 58.4 µM.
